PubChem BioAssay (NCI)
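Dose response: 5 concentrations. Exposure: 48 h. Format: 96-well plates. Endpoint: linear interpolation; highest concentration if not reached. At the GI50, growth is halved. Definition used: TGI = concentration required for complete inhibition of growth.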

Key:
Experiment in all cases: NCI anticancer screen, dose series, 48 h
MDA-N = tested on: MDA-N
LXFL 529 NSCLC = tested on: LXFL 529 NSCLC
DLD-1 colon = tested on: DLD-1 colon
KM20L2 colon = tested on: KM20L2 colon
XF 498 CNS = tested on: XF 498 CNS
RXF-631 renal = tested on: RXF-631 renal
HOP-18 NSCLC = tested on: HOP-18 NSCLC

SMILES	TGI (MDA-N) [µM]	TGI (LXFL 529 NSCLC) [µM]	TGI (DLD-1 colon) [µM]	TGI (KM20L2 colon) [µM]	TGI (XF 498 CNS) [µM]	TGI (RXF-631 renal) [µM]	TGI (HOP-18 NSCLC) [µM]	GI50 (MDA-N) [µM]
CNC(=O)OCc1c2ccncc2c(C)c2c1[nH]c1ccccc12	1.73	–	–	–	–	–	–	–
O=C1c2ccccc2C(=O)N1CCN(CCN1C(=O)c2ccccc2C1=O)Cn1cccn1	–	> 100	> 100	> 100	> 100	> 100	–	–
O=C1CCC2CC(C(=O)c3ccccc3)CCC2CN1 (stereo unspecified) (tested in a mixture with another compound)	–	> 100	> 100	> 100	–	–	> 100	–
N#Cc1ccccc1NC(=O)C(=O)c1c(O)c2ccccc2oc1=O	> 100	–	–	–	–	–	–	–
COC(=O)C(CC(C)C)NC(=O)NC12CC3CC(CC(F)(C3)C1)C2 (stereo unspecified)	–	> 100	> 100	> 100	–	> 100	–	–
COC(=O)C(C(=O)C(=O)Nc1nc(=S)[nH][nH]1)c1csc(-n2nc(-c3ccccc3)cc2-c2ccccc2)n1 (stereo unspecified)	–	> 100	> 100	> 100	–	–	–	–
CN(C)CCNC(=O)C(C)(C)Oc1ccc(C(=O)c2ccc(Cl)cc2)cc1Cl	19.8	–	–	–	–	–	–	6.48
O=C(O)C[C@H]1CCCCC12CCOC2=O (stereo partly specified)	–	> 100	> 100	> 100	> 100	> 100	> 100	–
COC(=O)/C=C(\C(=O)OC)c1c2c3c(cc(OC)c(OC)c3c3ccccc13)CCN2C	–	> 100	> 100	> 100	–	> 100	> 100	–
CC1=NOC(=O)/C1=C/c1cccc2ccccc12	–	> 100	> 100	> 100	–	–	> 100	–
N/N=C(\C(=O)Nc1ccc(Cl)cc1Cl)C(c1cnc2ccccc2n1)[N+](=O)[O-] (stereo unspecified)	> 100	–	–	–	–	–	–	–
NS(=O)(=O)c1ccc(NC2=CC(=O)C(=O)c3ccccc32)cc1	–	> 100	> 100	> 100	–	–	> 100	–
Cc1ccc(NC(=O)C(=O)C(C#N)c2nc(-c3ccc(-c4ccccc4)cc3)cs2)c(C)c1 (stereo unspecified)	–	> 100	> 100	> 100	–	–	> 100	–
CCCCCCCCCCCCCC(=O)OCC1OC(n2cc(F)c(=O)[nH]c2=O)C(NC(=O)OCc2ccccc2)C(OC(=O)CCCCCCCCCCCCC)C1O (stereo unspecified)	–	> 100	> 100	> 100	> 100	> 100	> 100	–
O=C(c1ccccc1)[C@H]1Nc2ccc(Cl)cc2C2c3ccccc3CC21 (stereo partly specified)	–	> 100	> 100	> 100	72.5	> 100	–	–
Cc1cc2c(cc1C)[n+](=O)c(C(=O)C/C(=N/OCCCc1ccccc1)C(=O)Nc1cc(Cl)ccc1Cl)c(C)n2[O-]	–	> 100	> 100	> 100	> 100	> 100	> 100	–
COc1c(C(=O)c2ccc([N+](=O)[O-])cc2)cc(C(C)(C)C)cc1C(C)(C)C	–	> 100	> 100	> 100	55.1	–	> 100	–
COC(=O)/C(=N\Nc1nc(=S)[nH]n1N)C(C#N)c1ccccc1 (stereo unspecified)	–	> 100	> 100	> 100	–	–	> 100	–
CC(=O)Nc1cc(N(CCOS(C)(=O)=O)CCOS(C)(=O)=O)ccc1N=O	–	> 100	> 100	> 100	> 100	–	–	–
CC1(C)CCC2=C(O1)c1ccccc1C(=O)C2=O	0.363	–	–	–	–	–	–	–

SMILES	TGI (MDA-N) [µM]	TGI (LXFL 529 NSCLC) [µM]	TGI (DLD-1 colon) [µM]	TGI (KM20L2 colon) [µM]	TGI (XF 498 CNS) [µM]	TGI (RXF-631 renal) [µM]	TGI (HOP-18 NSCLC) [µM]	GI50 (MDA-N) [µM]
C[C@]12CC[C@H](O)C[C@H]1CC[C@@H]1[C@@H]2CC[C@]2(C)[C@@H](C3=CC(=O)OC3)[C@@H](O)C[C@]12O	5.7	–	–	–	–	–	–	–
CCOC(=O)C1C2CCC(C2)C1(CCl)C(=O)OCC (stereo unspecified)	–	> 100	–	> 100	–	> 100	> 100	–
O=CNc1ncn[nH]1	> 100	–	–	–	–	–	–	–
CC(=O)c1ccc(OCC(O)CO)cc1 (stereo unspecified)	–	> 100	> 100	> 100	–	> 100	> 100	–
O=C(c1ccccc1)N1C2CCC1C(C(F)(F)F)=C2C(F)(F)F	–	> 100	> 100	> 100	–	> 100	> 100	–
N#Cc1c2c(c(N=P(c3ccccc3)(c3ccccc3)c3ccccc3)n3c1nc1ccccc13)CCCC2	–	> 100	> 100	> 100	–	> 100	> 100	–
CC(/C(=N\Nc1ccccc1)c1ccc(O)cc1)C1C(=O)Oc2ccccc21 (stereo unspecified)	–	> 100	> 100	> 100	–	–	–	–
CCN(CC)CCOc1ccccc1/C=C/c1noc2ccccc12	24.1	–	–	–	–	–	–	–
CNCc1cc(OC)ccc1-c1ccc(OC)c(OC)c1OC	–	> 100	> 100	> 100	> 100	> 100	> 100	–
CC1C[C@H](C)CC(C(O)CC2CC(=O)N(Cc3ccccc3)C(=O)C2)C1O (stereo partly specified)	–	> 100	> 100	> 100	–	–	> 100	–
CC1=CC(=C(c2ccc(N)cc2)c2ccc(N)cc2)C=CC1=N	> 40.9	13.6	> 100	17.6	10.3	–	–	–
CCCCCCCCOCC(O)COC(=O)CCCCCCC (stereo unspecified)	–	> 100	> 100	> 100	–	> 100	> 100	–
COC(=O)C(=O)C(C(=O)C(=O)Nc1nc2ccc(C)cc2s1)c1nc2ccc([N+](=O)[O-])cc2[nH]c1=O (stereo unspecified)	> 100	–	–	–	–	–	–	–
COc1cc(OC)c(/C=C\c2ccnc3ccccc23)c(OC)c1	2.03	–	–	–	–	–	–	–
CCOC(=O)CSC(=O)NCCCl	–	> 100	> 100	> 100	–	–	–	–
NNC(=O)CNC(=O)c1ccc(Cl)cc1Cl	–	> 100	> 100	> 100	> 100	–	> 100	–
COc1ccc(C2CC(c3cc(C)ccc3O)=NC(N)=N2)cc1 (stereo unspecified)	–	> 100	> 100	> 100	> 100	–	> 100	–
NC(=O)c1ccc(NN=O)nc1	> 100	–	–	–	–	–	–	–
OCC(O)C(O)C(O)c1nn(-c2ccc(Cl)cc2)c2nc3cc(Cl)c(Cl)cc3nc12 (stereo unspecified)	–	> 100	> 100	> 100	27.4	–	> 100	–
